# Patent US7304168B2, “Photo-caged fluorescent molecules” (Board of Regents, University of Texas System, priority 2003, dated 2007)
# Tests used:
# [1] = 740 nm, 345 mW laser power exiting the cuvette; cited from earlier work
# [2] = Two photon uncaging action cross section at 740 nm with Bhc-OAc as reference; format: physicochemical; details: for photolysis after 20 minutes of continuous illumination: 345 mW exiting the cuvette; for sensitivity to two photon uncaging relative to 2a: average power 590 mW exiting the cuvette
# Description: To calculate δu, 6-bromo-7-hydroxycoumarin-4-ylmethyl acetate (Bhc-OAc) was used as a reference compound (Furuta, 1999; Fedoryak, 2002). The compounds tested included Compound 2a from FIG. 3 and a compound 2a′ having the structure:
# Bhc-OAc, Compound 2a, and Compound 2a′ in microcuvettes were illuminated using focused infrared light ([…]) from a femtosecond-pulsed and mode locked Ti-sapphire laser. The two photon uncaging action cross section was determined using the equation (Furuta, 1999):
# [formula] • where Np is the number of product molecules formed per unit time, <I0^2(t)> is the mean squared light intensity, S(r) is a unitless spatial distribution function, and the integral is over the volume of the microcuvet, and Cs is the substrate concentration. If caged compounds are photolyzed under the identical setting with the same two photon laser power, then the term <I0^2(t)>∫S^2(r)dV should be about the same for different cages. Thus, δu^a of cage “a” can be determined by comparing its rate of product formation (Np^a) with that of reference cage “b” with known δu^b according to the equation: […]
# The formation of coumarins after two photon photolysis of Compound 2a and […] was quantified similarly as in the one photon uncaging experiments by measuring the fluorescence enhancement. The photolysis of Bhc-OAc was quantified by HPLC analysis as described (Furuta, 1999; Fedoryak, 2002).
# Two photon photolysis was carried out using a procedure similar to the one first described by Furuta et al (Furuta, 1999). Samples in 100 mM Mops buffer (pH 7.3) were transferred to a microcuvette (Hellma 105.251-QS). The filling volume of the cuvette was […]. The laser beam from a fs-pulsed and mode-locked Ti-Sapphire laser (Mira 900-F pumped by a Verdi, Coherent, Santa Clara, Calif.) was focused into the center of the cuvette with a focusing lens (01 LPX 029/077, focal length 25 mm, Melles-Griot, Carlsbad, Calif.). After irradiation with 740 nm light, samples were collected and the formation of the products was quantified. The formation of coumarins from caged precursors 2a or 2a′ (initial concentration 10 μM) was measured by fluorescence spectroscopy. The photolysis of Bhc-OAc (initial concentration 100 μM) was followed by HPLC. Two-photon uncaging cross sections (δu) were calculated from equation (2) and the reported δu of 0.72 GM for Bhc-OAc at 345 mW laser power exiting the cuvette (Fedoryak, 2002).
# [3] = at 730 nm; cited from earlier work
# human fibroblasts = human fibroblasts loaded with Fluo-3/AM
# Description: Human fibroblasts were loaded with the calcium indicator Fluo-3/AM (Molecular Probes), and a caged and cell permeable coumarin derivative (compound 8, FIG. 6). […] Optical filters were used (coumarin excitation, 440AF21 (Omega Optical); Fluo-3 excitation, 490/20; UV uncaging 330WB80; dichroic, 61010bs; emission filter, 84101 special; all of Chroma Technology unless stated otherwise).
# Fluo-3 measures cell calcium concentrations.
# [4] = system: gap junction transfers in coupled human fibroblast cells; test: Inhibition of junctional coumarin (HCCC2) transfer after localized uncaging; format: cell-based; details: human fibroblasts loaded with NPE-HCCC2-AM (1 μM); added prior to the third uncaging
# Description: Coupled human fibroblast cells were loaded with NPE-HCCC2-AM (1 μM) for 40 minutes in Hanks Balanced Saline (HBS with 10 mM Hepes, 5.5 mM glucose, pH 7.3), then washed and incubated for another 15 minutes before imaging on an inverted fluorescence microscope. The time course of fluorescent intensities of HCCC2 after it was locally uncaged in the “donor” cells is shown in FIG. 10 (FHCCC2, arbitrary units, 425±5 nm excitation, 460±10 nm emission). A field diaphragm was placed in the excitation light path inside the microscope. The iris of the field diaphragm was reduced to a minimum to limit the area of UV illumination (360±20 nm) to a fraction of a cell during localized uncagings. Digital fluorescence images were taken every 15 seconds. The rates of HCCC2 diffusion are indicated under each episode of transfer. α-Glycyrrhetinic (“αG”) was added to the cells prior to the third uncaging. αG is a classical inhibitor of gap junction transfers (Rozental, et al., 2001).
structure (smiles),measurement,setting,value
"CC(=O)OCc1cc(=O)oc2cc(O)c(Br)cc12 [Bhc-OAc, 6-bromo-7-hydroxycoumarin-4-ylmethyl acetate]","reported δu, two photon uncaging cross section",[1],0.72 GM
same,photolysis after 20 minutes of continuous illumination,[2],10.6%
same,sensitivity to two photon uncaging relative to 2a,[2],about two times more sensitive to two photon uncaging than 2a
COC(=O)CC[C@@H](NC(=O)c1cc2ccc(OC(C)c3ccccc3[N+](=O)[O-])cc2oc1=O)C(=O)OC (stereo partly drawn) [Compound 2a′],photolysis after 20 minutes of continuous illumination,[2],10%
same,sensitivity to two photon uncaging relative to 2a,[2],about two times more sensitive to two photon uncaging than 2a
same,"δu, two photon uncaging action cross section",[2]; estimated against Bhc-OAc (0.72 GM),0.68 GM
COc1ccc([N+](=O)[O-])c2c1CCN2C(=O)CC[C@H](N)C(=O)O [MNI caged glutamate],"δu, two photon uncaging cross section",[3],0.06 GM
NCCc1c[nH]cn1 [histamine],intracellular calcium (Fluo-3 channel),human fibroblasts,induced intracellular calcium increase
"CC1(C)[C@@H](O)CC[C@]2(C)[C@H]3C(=O)C=C4[C@H]5C[C@@](C)(C(=O)O)CC[C@]5(C)CC[C@@]4(C)[C@]3(C)CC[C@@H]12 [αG, α-glycyrrhetinic acid]",inhibition of coumarin transfer through gap junctions,[4],susceptible to inhibition by αG
